Key:
[1] = target: T1, rat luteinizing hormone receptor (rLHR) (Rattus norvegicus, UniProt P16235); experiment: Intracellular cAMP in HEK293T cells transiently expressing rLHR, induced by bLH; assay type: cell-based; conditions: 500 ng/ml bLH, 1 h post-induction, rLHR expressed, vs non-induced cells
T1 construct: Full-length cDNAs encoding the LHRs of rat (r) and bovine (b) origin; expressed in transfected cells; host or cells: HEK293T, transient transfection with pLEN-rLHR
Protocol: HEK293T cells were transiently transfected for constitutive bLHR or rLHR expression. 48 hours post-transfection the cells were induced by the addition of 500 ng/ml bLH. The intracellular cAMP-levels were determined 1 h post-induction. […] (□) no bLH, (▪) 500 ng/mL bLH.
Full-length cDNAs encoding the LHRs of rat (r) and bovine (b) origin were cloned under control of the strong constitutive human cytomegalovirus promoter (PCMV) as previously described [Kawate N, Tamada H, Inaba T, Sawada T, Journal of Reproduction and Development 2002; 48:8; Ulaner G A, Chuang J, Lin W, Woodbury D, Myers R V, Moyle W R, J Endocrinol 1999; 163:289-97]. The expression vectors were transiently transfected into HEK293T cells. The functionality of the expressed LHRs was determined 48 hours post-transfection by assaying the intracellular cAMP increase in response to the presence of bLH (FIG. 7). […] However, when the rLHR was expressed the detected cAMP-level increased to 29-fold level of the non-induced cells. […]
The intracellular cAMP production of cells was quantified using the cAMP Fluorescence Polarization (FP) Biotrak Immunoassay System (GE Healthcare Bio-Sciences GmbH, Otelfingen, Switzerland, Cat No. RPN3595) according to the manufacturer's protocol. The expression of firefly luciferase was determined with the Tropix Luciferase Assay Kit (Applied Biosystems, Bedford, USA, Cat No. BC100L). […]

[2] = target: rLHR (Rattus norvegicus, UniProt P16235); experiment: PCRE dependent SEAP expression over time in HEK293T expressing rLHR or bLHR; assay type: cell-based; set-up: Full-length cDNAs encoding the LHRs of rat (r) and bovine (b) origin; expressed in transfected cells; host or cells: HEK293T, transient transfection with pLEN-rLHR; conditions: 500 ng/mL bLH, maximal SEAP expression
rLHR, sequence (P16235 27-700): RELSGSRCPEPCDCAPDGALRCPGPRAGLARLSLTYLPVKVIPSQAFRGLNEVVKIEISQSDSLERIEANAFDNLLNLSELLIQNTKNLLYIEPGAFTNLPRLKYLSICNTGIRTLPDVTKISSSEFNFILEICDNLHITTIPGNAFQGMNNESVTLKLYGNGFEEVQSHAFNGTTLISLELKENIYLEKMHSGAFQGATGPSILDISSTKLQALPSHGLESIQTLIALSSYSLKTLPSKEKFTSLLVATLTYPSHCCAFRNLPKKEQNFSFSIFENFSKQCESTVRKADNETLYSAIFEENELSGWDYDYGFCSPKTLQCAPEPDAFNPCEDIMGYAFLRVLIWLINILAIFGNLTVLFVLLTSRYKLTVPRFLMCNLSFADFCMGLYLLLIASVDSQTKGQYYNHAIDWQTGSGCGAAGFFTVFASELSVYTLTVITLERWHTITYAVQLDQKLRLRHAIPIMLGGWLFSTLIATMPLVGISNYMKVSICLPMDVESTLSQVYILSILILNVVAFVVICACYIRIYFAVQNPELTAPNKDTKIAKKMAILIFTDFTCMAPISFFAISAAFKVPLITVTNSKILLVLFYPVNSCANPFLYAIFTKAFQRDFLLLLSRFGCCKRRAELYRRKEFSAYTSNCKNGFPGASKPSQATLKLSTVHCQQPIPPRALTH
Protocol: HEK293T cells were transiently co-transfected for PCRE dependent SEAP expression and constitutive bLHR- or rLHR expression or with the empty vector pcDNA3.1(+). 24 hours post-transfection the cells were induced by addition of 500 ng/mL bLH or cultivated non-induced. […] (▴) rLHR+bLH; (▪) bLHR+bLH; (×) rLHR-bLH; (♦) bLHR-bLH;
Functional expression of LHRs on the cell surface results in the stimulation of PKA and an increase of intracellular cAMP in response to bLH. It was evaluated whether the activated LHR-signaling may induce a PKA-responsive promoter. […] 24 hours post-transfection the cells were induced by bLH and the SEAP expression was determined over time. […] In comparing rLHR- and bLHR-expressing cells a 3-fold increase in maximal SEAP expression in response to bLH of the rLHR over the bLHR was detected. […]
The intracellular cAMP production of cells was quantified using the cAMP Fluorescence Polarization (FP) Biotrak Immunoassay System (GE Healthcare Bio-Sciences GmbH, Otelfingen, Switzerland, Cat No. RPN3595) according to the manufacturer's protocol. The expression of firefly luciferase was determined with the Tropix Luciferase Assay Kit (Applied Biosystems, Bedford, USA, Cat No. BC100L). […] Enhanced YFP-expression was detected by fluorescence microscopy (Leica Microsystems, Wetzlar, Germany)

T1 sequence (P16235 27-700): as above

Substance: bovine luteinizing hormone [bLH]
- increase in intracellular cAMP [1]: 29 fold
- SEAP production of rLHR-expressing cells relative to bLHR-expressing cells [2]: 3 fold
